Data reported in patent publication US8431170B2, “Antimicrobial composition with low cytotoxicity” (Oy Granula AB Ltd., priority 2008, dated 2013).
Where two headings read alike, the source gives them in different places.

How the values were obtained:
[1] = pure polyphenols; values marked 1: Willför et al., J. Agric. Food Chem. 51, 7600-7606 (2003); cited from earlier work
[2] = pure polyphenols; values marked 1: Willför et al., J. Agric. Food Chem. 51 (2003); cited from earlier work
[3] = Peroxide radicals capturing capacity; type: biochemical; conditions: pure polyphenols isolated from wood material
Text: Tables 4C and 4D further represent the free radicals capturing capacity of certain pure polyphenols and unrefined polyphenol extracts with respect to peroxide radicals. Tables 4A and 4B represent the antioxidative effect of a few pure polyphenols and of unrefined polyphenolic compounds containing raw extracts, obtained from wood bark and knotty stemwood. Tables 4C and 4D in turn illustrate the peroxide radicals capturing capacity of a few pure polyphenols and of unrefined, polyphenolic compounds containing raw extracts, obtained from wood bark and knotty stemwood. In Tables 4A-4D, it can be observed that the antioxidative and free radical capturing properties of solutions containing pure polyphenol compounds, obtained from wood material in hydrophilic extraction, are often remarkably different from the corresponding properties of compound mixtures containing unrefined raw extract solutions and obtained from wood material in hydrophilic extraction, owing to the synergetic effects of the compounds contained in the compound mixtures in unrefined extracts. The compound mixtures according to the invention are obtained from these unrefined raw extract solutions.

[4] = Antioxidative capacity: inhibition of the peroxidation of lipids; type: biochemical; conditions: pure polyphenols isolated from wood material
Text: In Tables 4A, 4B, 4C and 4D, there are represented antioxidative and free radical capturing effects of pure polyphenolic compounds and of unrefined polyphenolic compounds containing raw extracts obtained from wood bark and knotty stemwood. Tables 4A and 4B represent the antioxidative effect of a few pure polyphenols and of unrefined polyphenolic compounds containing raw extracts, obtained from wood bark and knotty stemwood. Tables 4C and 4D in turn illustrate the peroxide radicals capturing capacity of a few pure polyphenols and of unrefined, polyphenolic compounds containing raw extracts, obtained from wood bark and knotty stemwood. In Tables 4A-4D, it can be observed that the antioxidative and free radical capturing properties of solutions containing pure polyphenol compounds, obtained from wood material in hydrophilic extraction, are often remarkably different from the corresponding properties of compound mixtures containing unrefined raw extract solutions and obtained from wood material in hydrophilic extraction, owing to the synergetic effects of the compounds contained in the compound mixtures in unrefined extracts. The compound mixtures according to the invention are obtained from these unrefined raw extract solutions.

human keratinocyte cells = type: cell-based

Compound	Peroxide radicals capturing capacity [1] [mmol/g]	EC50 which inhibits 50% of the peroxidation of the lipids [2] [µg/mL]	Peroxide radicals capturing capacity [3] [mmol/g]	EC50 which inhibits 50% of the peroxidation of the lipids [4] [µg/mL]	other results
O=C1c2c(O)cc(O)cc2O[C@H](c2ccc(O)c(O)c2)[C@H]1O [Taxifolin]	16	0.046	–	–	–
COc1cc(C[C@H]2COC(=O)[C@@H]2Cc2ccc(O)c(OC)c2)ccc1O [Matairesinol]	2.9	0.099	–	–	–
Pinoresinol	–	–	7.8	0.02	–
Oc1ccc([C@H]2Oc3c(ccc(O)c3O)[C@@H](O)[C@H]2O)cc1O [Melacasidine]	–	–	20	0.036	–
COc1cc(C[C@H]2CO[C@H](c3ccc(O)c(OC)c3)[C@H]2CO)ccc1O [Lariciresinol]	2.7	0.126	–	–	–
COc1cc(C[C@H]2C(=O)OC[C@@H]2[C@H](O)c2ccc(O)c(OC)c2)ccc1O [Hydroxymatairesinol]	5.6	0.058	–	–	–
O=C1C[C@@H](c2ccccc2)Oc2cc(O)cc(O)c21 [Pinosembrin]	–	–	0.49	1.135	–
Oc1cc(O)cc(/C=C/c2ccccc2)c1 [Pinosylvin]	–	–	0.78	0.05	–
COc1cc(C[C@H]2COC(=O)[C@]2(O)Cc2ccc(O)c(OC)c2)ccc1O [Nortrachelogenin]	5.9	0.053	–	–	–
Oc1ccc([C@H]2Oc3c(ccc(O)c3O)[C@@H](O)[C@H]2O)cc1 [Teracasidine]	–	–	7.8	0.05	–
O=C1c2c(O)cc(O)cc2O[C@H](c2ccc(O)cc2)[C@H]1O [Dihydrokaempferol]	–	–	0.78	0.488	–
Cc1cc(C(C)(C)C)c(O)c(C(C)(C)C)c1 [BTH, butylated hydroxytoluene]	–	–	–	–	EC20 (limit value by which 20% of the cultivated cells died) (human keratinocyte cells; human, 24 h): 5.50 ppm; times more cytotoxic than HMR powder (human keratinocyte cells; ratio to HMR powder): 10-20 times
COc1cc(C[C@@H](CO)[C@H](CO)Cc2ccc(O)c(OC)c2)ccc1O [Secoisolariciresinol]	8.5	0.037	–	–	–
COc1cc([C@H]2c3cc(O)c(OC)cc3C[C@@H](CO)[C@@H]2CO)ccc1O [Cyclolariciresinol]	–	–	12	0.017	–
